Assay [1] relates to Phosphatidate Phosphohydrolase. The assay can be described thus: In vitro liver enzyme study: phosphatidate phosphohydrolase. The format is biochemical, mouse. Particulars: in vitro CF1 liver, 30 min. As for the experimental part:
In vitro enzymatic studies were determined using 10% homogenates of CF1 male mouse liver with 50-200 μM of test drugs. In vivo enzymatic studies were determined using 10% homogenates of liver from CF1 male mice obtained after administering the agents for 16 days at a dose ranging from 2.5-20 mg/kg/day intraperitoneally. The liver homogenates for both in vitro and in vivo studies were prepared in 0.25M sucrose and 0.001M (ethylenedinitrilo)tetraacetic acid. Acetyl coenzyme A synthetase and adenosine triphosphate dependent citrate lyase activities were determined spectrophotometrically at 540 nm as the hydroxylamate of acetyl coenzyme A formed after 30 min at 37° C. Mitochondrial citrate exchange was determined by the procedure of Robinson et al [Eur. J. Biochem., 216, 63 (1970)] using ^14 C-sodium bicarbonate (41 mCi/mmol) incorporated into mitochondrial ^14 C-citrate after isolating rat mitochondria (9000 g×10 min) from the homogenates. The exchanges of the ^14 C-citrate were determined after incubating the mitochondrial fraction which was loaded with labeled citrate and test drugs for 10 min. Then the radioactivity was measured in the mitochondrial and supernantant fractions in scintillation fluid and expressed as a percentage. Cholesterol side chain oxidation was determined by the method of Kritchevsky and Tepper [Artherosclerosis, 18, 93 (1973)] using (26-^14 C) cholesterol (50 mCi/mmol) and mitochondria isolated from rat liver homogenates. […] Fatty acid synthetase activity was determined by the method of Brady et al [J. Biol. Chem., 235, 3093 (1960)] using [2-^14 C] malonyl-coenzyme A (37.5 mCi/mmol) which was incorporated into newly synthesized fatty acids that were extracted with ether and counted. Acyl transferase activity was determined with glycerol-3phosphate [L-2-^3 H(N)] […] HCl and counted. Phosphatidate phosphohydrolase activity was measured as the inorganic phosphate released after 30 min from phosphatidic acid by the method of Mavis et al [J. Lipid Res., 19, 467 (1978)]. […]

In assay [2] the test system is formate incorporation into purine. Kind of assay: In vitro formate incorporation into purine (supernatant fraction). It counts as biochemical, mouse. Particulars: read-out: ID50, formate incorporation into purine. How it is done: CF1 male mice (~30 g) were implanted with 2×10^6 Ehrlich ascites tumor cells, intraperitoneally on Day 0. Compound I was suspended by homogenation in 0.05% polysorbate.80-water and administered intraperitoneally at 10 and 20 mg/kg for 9 days to determine its effectiveness for inhibition of tumor growth. Mice were sacrificed on Day 10, and the ascites fluid was collected from the peritoneal cavity. The volume and ascrit (packed cell volume) were determined for each animal and the percent inhibition of tumor growth was calculated. For the metabolic studies, mice were treated on Days 8 and 9 with 10 mg/kg of Compound I, intraperitoneally. […]
Carbamyl phosphate synthetase activity was determined using the reaction medium of Kalman et al [Am. […] Citrulline formed from ornithine was measured at 490 nm by the method of Archibald [J. Biol. Chem., 156, 121 (1944)]. […] The ^14 CO2 generated in 15 min was trapped in 1M KOH and counted. Thymidylate synthetase activity was determined using a post-mitochondrial supernatant (9000 g×10 min) and 5 μCi of 5-^3 H-deoxyuridine monophosphate (14 Ci/mmol) according to the method of Kampf et al [ J. Med. Chem., 19, 903 (1976)]. ^14 C-Formate incorporation into purines was determined by the method of Spassova et al [Biochem. Pharmacol., 25, 923 (1976)] using 0.5 μCi of ^14 C-formic acid (52.0 mCi/mmol). […] The Rf value for xanthine monophosphate was scraped and counted. […]

The test system of assay [3] is protein synthesis of Ehrlich ascites cells. Kind of assay: In vitro whole cell incorporation: protein synthesis. The format is cell-based, mouse. Particulars: preliminary, 60 min, read-out: ID50, protein synthesis. How it is done:
CF1 male mice (~30 g) were implanted with 2×10^6 Ehrlich ascites tumor cells, intraperitoneally on Day 0. Compound I was suspended by homogenation in 0.05% polysorbate.80-water and administered intraperitoneally at 10 and 20 mg/kg for 9 days to determine its effectiveness for inhibition of tumor growth. Mice were sacrificed on Day 10, and the ascites fluid was collected from the peritoneal cavity. The volume and ascrit (packed cell volume) were determined for each animal and the percent inhibition of tumor growth was calculated. For the metabolic studies, mice were treated on Days 8 and 9 with 10 mg/kg of Compound I, intraperitoneally. The animal was sacrificed on Day 10 and the ascites fluid harvested. The in vitro metabolic studies were performed at […] final concentration of Compound I.
In vitro incorporation of ^3 H-thymidine, ^3 H-uridine, or ^3 H-leucine was determined using 10^6 Ehrlich ascites cells, 1 μCi labeled precursor, minimum essential medium and varying final concentrations of drug from 0.25-1.0 mM. The tubes were incubated at 37° C. for 60 min and inactivated by trichloroacetic acid. The acid insoluble labeled deoxyribonucleic acid was collected on GF/F glass filter discs and ribonucleic acid and protein were precipitated on nitrocellulose filters by vacuum suction. Results are expressed as dpm of incorporated precursor per hour per 10^6 cells.

Take “{Cu[(CH3)3 N.BH2 CO2 ]2.(CH3)3 N.BH2 COOH} [Compound I]”: the “Phosphatidate Phosphohydrolase” value in assay [1] (50 μM) was found to be 77 ± 5 Percent Control; in assay [1] (100 μM) it was 63 ± 6 Percent Control; in assay [1] (200 μM) it was 35 ± 3 Percent Control. The figures for the IC50 in assay [2] and in assay [3] were 1710 µM and 863 µM, respectively.

For the origin of these results see US4550186A, “Binuclear copper (II) carboxylates formed from amine-carboxyboranes” (Duke University, priority 1983, dated 1985).
